What was measured:
[1] = system: Cyphoma digestive gland cytosolic GST; experiment: Inhibition of CDNB-conjugating GST activity in digestive gland cytosol; assay type: biochemical, Cyphoma gibbosum; conditions: prostaglandins screened at 600 µM, 5% (v/v) DMSO, Figure 3
human mu-class GST M1a-a = system: human mu-class GST M1a-a; parameters: method as in PMID 9084911; conditions: conversion to glutathione conjugate; read-out: Km for PGA2; cited from earlier work
rat alpha-class GST A4-4 = system: rat alpha-class GST A4-4; parameters: method as in PMID 12230403; conditions: conversion to glutathione conjugate; read-out: Km for PGA2; cited from earlier work
human mu-class GST M2-2 = system: human mu-class GST M2-2; parameters: method as in PMID 12230403; conditions: conversion to glutathione conjugate; read-out: Km for PGA2; cited from earlier work

With `CCCCC[C@@](C)(O)/C=C/[C@H]1C=CC(=O)[C@@H]1C/C=C\CCCC(=O)O` [15(R)-15-methyl PGA2] the “inhibition of GST activity in comparison to solvent controls” value (“inhibition of GST activity in comparison” for short) [1] was “most potent inhibitors”.

In the case of `CCCCC[C@H](O)/C=C/[C@H]1C=CC(=O)[C@@H]1C/C=C\CCCC(=O)O` [15(S)-PGA2, prostaglandin A2], the “inhibition of GST activity in comparison” value ([1]; 600 µM) is listed as “most potent inhibitors”, the “inhibition of GST activity in comparison” value ([1]; listed as PGA2, 600 µM) is listed as “greatest inhibition” and the Km (human mu-class GST M1a-a) is listed as 26 µM. The Km (rat alpha-class GST A4-4) was 12 µM and the Km (human mu-class GST M2-2) was 7.6 µM.

In the case of `CCCCC[C@H](O)/C=C/[C@H]1[C@H](O)CC(=O)[C@@H]1C/C=C\CCCC(=O)OC` [15(S)-PGE2-methyl ester], the “inhibition of GST activity in comparison” value [1] is reported as “little to no inhibitory activity”.

With `CCCCC[C@H](O)/C=C/[C@@H]1[C@@H](C/C=C\CCCC(=O)OC)[C@@H](O)C[C@H]1O` [15(S)-PGF2α-methyl ester] the “inhibition of GST activity in comparison” value [1] was “little to no inhibitory activity”.
